In series [1] the target is [35S]-tert-butylbicyclophosphorothionate (TBPS) binding. Put plainly: Inhibition of [35S]-TBPS binding (in vitro potency). The arrangement: species or system rat. The following applies: dose of steroid inhibiting 50% of specific binding of [35S]-TBPS. The procedure: (§1) Table I below compares the in vitro potencies [ability to inhibit the binding of [^35S]-tert-butylbicyclophosphorothionate (TBPS)], rotorod TD50's (dose at which half of animals tested fail to stay on a rotating rod for 1 minute) and the length of time before all animals tested are able to pass rotorod test (duration of action) of closely structurally related pairs of 3β-methyl and 3β-methoxymethyl steroids. These methods for measuring in vitro and in vivo activity of compounds of the invention are fully described in U.S. Pat. No. 5,232,917. The TBPS assay gives the in vitro potency of compounds whereas the rotorod assay estimates the sedative/hypnotic activity of compounds. Since the duration of action of a compound is dependent on the dose and will be prolonged at higher doses, the duration of action was measured at the lowest dose where all of the animals failed the rotorod test. For compounds with duration of action >240 minutes, the number of animals passing the rotorod test at 240 minutes is given in parentheses. In each pair, the […] steroid has a biological duration action of greater than 240 minutes, while in each of the corresponding 3β-methoxymethyl steroids the duration of action is reduced to 180 minutes or less. […] Thus, specific 3β-methoxymethyl-substituted neuroactive steroids gave unique and unexpected pharmacokinetic profiles, making them especially useful as sedative/hypnotic and anesthetic agents.

For series [2], the system named is rat. The experiment in a line: Rotorod test (sedative/hypnotic activity and duration of action). The note with it: for TD50: Rattus norvegicus, 1 min, read-out: RR TD50 po; for Duration of action: at lowest dose where all animals failed the rotorod test, time until all animals pass again; for Number of animals passing the rotorod test at 240 minutes: given for compounds with duration of action >240 minutes. The class given is in vivo. The procedure:
as §1
In general terms: In the rotarod test animals must keep their balance on a rotating rod.

Where [3] appears, read: po, po, dose at which half of animals fail to stay on a rotating rod for 1 minute.

A word on the IC50: it is the midpoint of a concentration-inhibition curve. Low values mean inhibition by little substance, high ones a need for much substance. The term TD50 denotes the 50% point of the dose-response relation for the toxic effect studied. `COCC1(O)CCC2(C)C(CCC3C2CCC2(C)C(C(=O)Cn4ncnn4)CCC32)C1` (stereo not drawn) [3α-Hydroxy-3β-methoxymethyl-21-(2′-tetrazolyl)-5α-pregnan-20-one]: the IC50 in series [1] came out at 24 nM. In addition, the TD50 in series [2] (setting [3]) was 35 mg/kg. This compound also returned a Duration of action in series [2] of 120 min.
Regarding `COCC1(O)CCC2(C)C(CCC3C2CCC2(C)C(C(=O)COc4ccc5c(ccc[n+]5[O-])c4)CCC32)C1` (stereo not drawn) [3α-Hydroxy-3β-methoxymethyl-21-(quinolin-6-yloxy)-5α-pregnan-20-one, N-oxide], in series [1], the IC50 was 25 nM. Further, the TD50 in series [2] (setting [3]) is 29 mg/kg. For the same compound, in series [2], the Duration of action turned out to be 84 min.
Turning to `CC1(O)CCC2(C)C(CCC3C2CCC2(C)C(C(=O)Cn4ncnn4)CCC32)C1` (stereo not drawn) [3α-Hydroxy-3β-methyl-21-(2′-tetrazolyl)-5α-pregnan-20-one, reference compound], the IC50 in series [1] worked out at 44 nM. In addition, in series [2], the “Number of animals passing the rotorod test at 240 minutes” value (shortened to “Number”) is “(0/8” and the Duration of action was more than 240 min. For the same compound, the TD50 in series [2] (setting [3]) came out at 4.5 mg/kg.
In turn, `CC1(O)CCC2(C)C(CCC3C2CCC2(C)C(C(=O)COc4ccc5c(ccc[n+]5[O-])c4)CCC32)C1` (stereo not drawn) [3α-Hydroxy-3β-methyl-21-(quinolin-6-yloxy)-5α-pregnan-20-one, N-oxide, reference compound] yielded a 50% inhibitory concentration (IC50) in series [1] of 46 nM. Moreover, in series [2], the “Number” value is “(1/8” and the Duration of action was more than 240 min. In series [2] (setting [3]), the TD50 was determined as 15 mg/kg.
For `COCC1(O)CCC2(C)C(CCC3C2CCC2(C)C(C(=O)Cn4ccnc4)CCC32)C1` (stereo not drawn) [3α-Hydroxy-21-(1′-imidazolyl)-3β-methoxymethyl-5α-pregnan-20] [3α-Hydroxy-21-(1′-imidazolyl)-3β-methoxymethyl-5α-pregnan-20-one], the IC50 in series [1] amounted to 138 nM. For the same compound, the Duration of action in series [2] is 140 min. Further, in series [2] (po, dose at which half of animals fail to stay on a rotating rod for 1 minute), the “RR TD50 po” value was determined as 28 mg/kg.
As to `COCC1(O)CCC2(C)C(CCC3C2CCC2(C)C(C(=O)Cn4ccnc4)CCC32)C1` (stereo not drawn) [3α-Hydroxy-21-(1′-imidazolyl)-3β-methoxymethyl-5β-pregnan-20-one], in series [2] (setting [3]), the TD50 amounted to 30 mg/kg.
Consider `COCC1(O)CCC2(C)C(CCC3C2CCC2(C)C(C(=O)Cn4ccnc4)CCC32)C1` (stereo not drawn) [3α-Hydroxy-21-(1′-imidazolyl)-3β-methoxymethyl-5β-pregnan-20] [3α-Hydroxy-21-(1′-imidazolyl)-3β-methoxymethyl-5β-pregnan-20-one], for which the IC50 in series [1] was found to be 174 nM. Also, in series [2], the Duration of action was less than 180 min.
`CC1(O)CCC2(C)C(CCC3C2CCC2(C)C(C(=O)Cn4ccnc4)CCC32)C1` (stereo not drawn) [3α-Hydroxy-21-(1′-imidazolyl)-3β-methyl-5α-pregnan-20-one, reference compound] displayed an IC50 in series [1] of 97 nM. Besides, in series [2], the “Number” value is on record as “(3/8” and the Duration of action was more than 240 min. Moreover, in series [2] (setting [3]), the TD50 was 31 mg/kg.
One may read the melting point as the temperature of the solid-liquid transition. Regarding `COCC1(O)CCC2(C)C(CCC3C2CCC2(C)C(C(=O)CSc4nnc(N)s4)CCC32)C1` (stereo not drawn) [21-(5′-Amino-[1,3,4]-thiadiazol-2-ylthio)-3 α-hydroxy-3β-methoxymethyl-5α-pregnan-20-one], the melting point was in the range of 169 to 172 °C. The same compound had a half-inhibitory concentration (IC50) in series [1] of 48 nM. Further, the TD50 in series [2] (setting [3]) was found to be 40 mg/kg. The compound also returned a Duration of action in series [2] of less than 90 min.

The record behind these values is patent US20040034002A1, “3Alpha-hydroxy-3beta-methoxymethyl-substituted steroids and the use thereof” (Euro-Celtique S.A., priority 1999, published 2004).
